Experiment [1] deals with T1, Glycine receptor subunit alpha-1 (Homo sapiens, UniProt P23415).
T1 sequence (P23415 whole entry): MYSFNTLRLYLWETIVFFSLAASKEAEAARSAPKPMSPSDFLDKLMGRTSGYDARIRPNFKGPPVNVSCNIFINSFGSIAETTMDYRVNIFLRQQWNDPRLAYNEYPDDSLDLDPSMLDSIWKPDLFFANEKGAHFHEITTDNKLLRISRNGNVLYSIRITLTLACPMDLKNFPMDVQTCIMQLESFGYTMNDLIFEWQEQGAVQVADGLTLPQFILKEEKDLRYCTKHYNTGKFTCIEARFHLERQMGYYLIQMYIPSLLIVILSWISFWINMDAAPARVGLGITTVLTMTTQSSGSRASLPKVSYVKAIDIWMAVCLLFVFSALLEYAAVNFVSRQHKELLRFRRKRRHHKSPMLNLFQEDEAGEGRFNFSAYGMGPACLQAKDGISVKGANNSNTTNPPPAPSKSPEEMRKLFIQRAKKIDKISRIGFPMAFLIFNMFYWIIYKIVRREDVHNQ
Kind of experiment: Antagonist activity at recombinant human glycine receptor alpha 1 expressed in human tsA201 cells assessed as inhibition of glycine-induced receptor activation after 30 mins by FLIPR membrane potential blue assay. The experiment is classed as cell-based.

For experiment [2], the target named is T2, Glycine receptor (alpha-1/beta) (Homo sapiens, UniProt P23415+P48167). Kind of experiment: Antagonist activity at recombinant human glycine receptor alpha 1 beta expressed in human tsA201 cells assessed as inhibition of glycine-induced receptor activation after 30 mins by FLIPR membrane potential blue assay. The experiment is classed as cell-based.
T2 sequence (P48167 whole entry, one chain of several): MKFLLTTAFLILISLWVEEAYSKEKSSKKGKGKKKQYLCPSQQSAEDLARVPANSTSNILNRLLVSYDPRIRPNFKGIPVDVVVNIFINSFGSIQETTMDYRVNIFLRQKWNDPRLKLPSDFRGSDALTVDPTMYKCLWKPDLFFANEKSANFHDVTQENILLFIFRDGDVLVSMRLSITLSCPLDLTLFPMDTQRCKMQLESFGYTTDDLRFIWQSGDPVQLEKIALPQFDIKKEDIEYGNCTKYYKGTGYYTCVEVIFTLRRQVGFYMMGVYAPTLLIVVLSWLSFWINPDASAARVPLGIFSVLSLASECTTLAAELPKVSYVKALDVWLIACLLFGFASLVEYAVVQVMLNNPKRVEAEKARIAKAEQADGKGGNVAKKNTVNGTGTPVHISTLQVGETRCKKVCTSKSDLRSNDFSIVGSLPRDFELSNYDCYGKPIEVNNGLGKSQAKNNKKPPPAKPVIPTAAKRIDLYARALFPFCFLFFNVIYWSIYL
The target in experiment [3] is T1, Glycine receptor subunit alpha-1. Kind of experiment: Antagonist activity at recombinant human glycine receptor alpha 1 expressed in HEK293 cells assessed as inhibition of glycine-induced current at -50 mV holding potential by whole cell patch-clamp method. The experiment is classed as cell-based. Background: In patch-clamp work, channel activity is measured electrically.

The target is the same in experiment [4]. The experiment is described as follows: Displacement of [3H]strychnine from recombinant human glycine receptor alpha 1 expressed in HEK293 cell membranes after 30 mins by liquid scintillation counting method. (In general: In a radioligand displacement assay an active substance lowers the binding of a labelled ligand.)
The target in experiment [5] is T2, Glycine receptor (alpha-1/beta). The experiment is described as follows: Antagonist activity at recombinant human glycine receptor alpha 1 beta expressed in HEK293 cells assessed as inhibition of glycine-induced current at -50mV holding potential by whole cell patch-clamp method. The experiment is classed as cell-based.
The species named for the next experiment is Homo sapiens. The experiment is described as follows: Selectivity ratio of IC50 for recombinant human glycine receptor alpha 1 beta expressed in human tsA201 cells to IC50 for recombinant human glycine receptor alpha 1 expressed in human tsA201 cells. It is filed as cell-based.
In experiment [6] the target is T3, Glycine receptor subunit alpha-1 (Rattus norvegicus, UniProt P07727).
T3 sequence (P07727 whole entry): T1 sequence (P23415 whole entry) with L9F, E27D, E362D, A365G, S396N, P402A, Q457K
Description: Displacement of [3H]strychnine from glycine receptor alpha 1 in rat brain synaptic membranes

Substitutions are numbered along the chain they refer to.

As to `O=C1/C(=N/OCCc2ccccc2)[C@@H]2OCC=C3CN4CC[C@]56c7ccccc7N1[C@H]5[C@H]2[C@H]3C[C@H]46`, the IC50 was 690 nM in experiment [1] (read-out: IC50), 708 nM in experiment [1] (read-out: pIC50 (converted)) and 780 nM in experiment [2].
By Ki is commonly meant a measure of affinity in units of concentration, obtained from inhibition or displacement. As to `C=CCO/N=C1/C(=O)N2c3ccccc3[C@@]34CCN5CC6=CCO[C@@H]1[C@@H]([C@H]23)[C@H]6C[C@H]54`, the IC50 in experiment [1] (read-out: IC50) came to 95 nM; in experiment [3] it was 49 nM; in experiment [5], 46 nM; in experiment [2], 150 nM. Besides, in experiment [4], the Ki was 370 nM.
For `COC(=O)CO/N=C1/C(=O)N2c3ccccc3[C@@]34CCN5CC6=CCO[C@@H]1[C@@H]([C@H]23)[C@H]6C[C@H]54`, the IC50 was 220 nM in experiment [1] (read-out: IC50) and 670 nM in experiment [2].
With `CCCO/N=C1/C(=O)N2c3ccccc3[C@@]34CCN5CC6=CCO[C@@H]1[C@@H]([C@H]23)[C@H]6C[C@H]54`, the IC50 in experiment [1] (read-out: IC50) stood at 110 nM; in experiment [3] it was 109 nM; in experiment [5], 116 nM; in experiment [2], 350 nM. Also, the Ki in experiment [4] turned out to be 241 nM. In the experiment filed under Homo sapiens, the Ratio IC50 fell in the range of 3 to 4.
`COC(=O)CCCCO/N=C1/C(=O)N2c3ccccc3[C@@]34CCN5CC6=CCO[C@@H]1[C@@H]([C@H]23)[C@H]6C[C@H]54`: the results for the IC50 in experiment [1] (read-out: IC50) and in experiment [2] were 720 nM and 1500 nM, respectively.
For `O=C1/C(=N/OCc2ccccc2)[C@@H]2OCC=C3CN4CC[C@]56c7ccccc7N1[C@H]5[C@H]2[C@H]3C[C@H]46`, in that order: 170 nM and 310 nM.
For the compound `C#CCO/N=C1/C(=O)N2c3ccccc3[C@@]34CCN5CC6=CCO[C@@H]1[C@@H]([C@H]23)[C@H]6C[C@H]54`, the IC50 is 52 nM in experiment [1] (read-out: IC50), 59 nM in experiment [3], 43 nM in experiment [5] and 240 nM in experiment [2].
Take `CCCCO/N=C1/C(=O)N2c3ccccc3[C@@]34CCN5CC6=CCO[C@@H]1[C@@H]([C@H]23)[C@H]6C[C@H]54`: the IC50 in experiment [1] (read-out: IC50) is 370 nM; in experiment [1] (read-out: pIC50 (converted)) it was 380 nM; in experiment [2], 880 nM.
Consider `CCCCCO/N=C1/C(=O)N2c3ccccc3[C@@]34CCN5CC6=CCO[C@@H]1[C@@H]([C@H]23)[C@H]6C[C@H]54`, for which the IC50 was found to be 250 nM in experiment [1] (read-out: IC50) and 710 nM in experiment [2]. Moreover, the Ratio IC50 in the experiment listed under Homo sapiens lay in the range of 3 to 4.
For `O=C1C[C@@]23c4ccccc4N4C(=O)C[C@@H]5OCC=C6CN1[C@H]2C[C@@H]6[C@@H]5[C@H]43`, the IC50 in experiment [1] (read-out: IC50) was found to be 6900 nM; in experiment [2] it was 9800 nM.
Turning to `CO/N=C1/C(=O)N2c3ccccc3[C@@]34CCN5CC6=CCO[C@@H]1[C@@H]([C@H]23)[C@H]6C[C@H]54`, the IC50 in experiment [1] (read-out: IC50) amounted to 100 nM; in experiment [3], 75 nM; in experiment [5] it was 56 nM; in experiment [2], 210 nM. In experiment [4], the Ki was determined as 189 nM.
On to `Nc1ccc2c(c1)[C@@]13CCN4CC5=CCO[C@H]6CC(=O)N2[C@H]1[C@H]6[C@H]5C[C@H]43`, for which the Ki in experiment [6] turned out to be 18 nM. For the same compound, the IC50 amounted to 77 nM in experiment [1] (read-out: IC50), 76 nM in experiment [3], 97 nM in experiment [5] and 270 nM in experiment [2]. Further, the Ratio IC50 in the experiment filed under Homo sapiens lay in the range of 3 to 4.
As to `O=C1C[C@@H]2OCC=C3CN4CC[C@]56c7ccccc7N1[C@H]5[C@H]2[C@H]3C[C@H]46` [STRYCHNINE], the Ki in experiment [6] is 12 nM; in experiment [4], 23 nM. The IC50 in experiment [1] (read-out: IC50) stood at 93 nM; in experiment [3], 51 nM; in experiment [5], 58 nM; in experiment [2], 180 nM.
Take `CCC[N+]12CC[C@@]34c5ccccc5N5C(=O)C[C@@H]6OCC=C(C1)[C@H](C[C@@H]32)[C@@H]6[C@H]54` (stereo partly specified): the IC50 in experiment [1] (read-out: IC50) came out at 10000 nM; in experiment [3] it was 4590 nM; in experiment [5] it was 6530 nM; in experiment [2] it was 13000 nM.
For `CCC(=O)Nc1ccc2c(c1)[C@@]13CCN4CC5=CCO[C@H]6CC(=O)N2[C@H]1[C@H]6[C@H]5C[C@H]43`, the IC50 in experiment [1] (read-out: IC50) worked out at 540 nM; in experiment [3], 201 nM; in experiment [5], 311 nM; in experiment [2], 940 nM. Moreover, the Ki in experiment [4] was 67 nM.
On to `CC(C)CO/N=C1/C(=O)N2c3ccccc3[C@@]34CCN5CC6=CCO[C@@H]1[C@@H]([C@H]23)[C@H]6C[C@H]54`, for which the results for the IC50 in experiment [1] (read-out: IC50) and in experiment [2] were 260 nM and 1100 nM, respectively. In the experiment listed under Homo sapiens, the Ratio IC50 is 3 to 4.

The values are drawn from ChEMBL document CHEMBL3997776, “Oxime Ethers of (E)-11-Isonitrosostrychnine as Highly Potent Glycine Receptor Antagonists” (J Nat Prod, 2016).
